Holding throughout (assay): NCI tumour cell line growth inhibition, 48 h
Experiment [1] has as its system 786-0.
The test system of experiment [2] is CAKI-1.
In experiment [3] the test system is HCT-15.
Experiment [4] relates to IGROV-1.
For experiment [5], the system named is KM12.
Experiment [6] deals with MDA-MB-231.
Experiment [7] deals with MDA-MB-435.
For experiment [8], the system named is OVCAR-3.
Experiment [9] relates to OVCAR-4.
The test system of experiment [10] is OVCAR-8.
The subject of experiment [11] is PC-3.
The subject of experiment [12] is RPMI-8226.
Experiment [13] concerns RXF 393.
The test system of experiment [14] is SF-268.
Experiment [15] deals with SK-MEL-5.
Experiment [16] has as its system SNB-19.
Experiment [17] deals with T47D.
The test system of experiment [18] is UACC-257.
Experiment [19] relates to CCRF-CEM.
Experiment [20] has as its system HCC 2998.

The text below walks through data of ChEMBL document CHEMBL1201862, “PubChem BioAssay data set” (2004).

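A five-concentration, 48-hour dose response in 96-well plates underlies each endpoint, interpolated linearly between surrounding concentrations. GI50 is the concentration that inhibits growth by half.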 Activity calls are given as the source filed them. Cut-off read from the data, not from the text of the source: active = GI50 up to about 1.1 µM and inactive = higher.

Turning to `CN(C)Cc1nsc(N(C)C)n1`, the GI50 was > 100 µM (inactive) in experiment [1]; > 100 µM (inactive) in experiment [2]; greater than 100 µM in experiment [3]; > 100 µM (inactive) in [4]; > 100 µM (inactive) in experiment [5]; > 100 µM (inactive) in experiment [6]. The GI50 in experiment [7], in [8], in experiment [9], in experiment [10], in [11] and in experiment [12] was > 100 µM (inactive) in each case. In addition, the GI50 in experiment [13], in [14], in experiment [15], in experiment [16], in experiment [17] and in experiment [18] was > 100 µM (inactive) in each case.

As to `NS(=O)(=O)c1ccc(/N=N/c2ncccc2O)cc1`, the GI50 in experiment [1] is 53.1 µM (inactive); in experiment [2], > 100 µM (inactive); in [3], greater than 100 µM; in experiment [4], > 100 µM (inactive); in experiment [5], 60.5 µM (inactive); in [6], > 100 µM (inactive). Besides, the GI50 is > 100 µM (inactive) in [7]; 33.7 µM (inactive) in experiment [8]; 57.7 µM (inactive) in [9]; 79.6 µM (inactive) in experiment [10]; > 100 µM (inactive) in experiment [11]; > 100 µM (inactive) in [12]. Besides, the GI50 in [13], in experiment [14], in experiment [15], in experiment [16], in experiment [17] and in experiment [18] was > 100 µM (inactive) in each case.

As for `C=C(C)C1CCC2=CC(CC3(C)OC3C3=CC(C(=O)OC)=C(C1)O3)OC2=O` (centres undefined), the GI50 in experiment [1] is > 100 µM (inactive); in experiment [2], > 100 µM (inactive); in [19], 83.2 µM (inactive); in experiment [3], greater than 100 µM; in [4], > 100 µM (inactive); in experiment [5], 98.4 µM (inactive). Further, the GI50 in [6] was 93.3 µM (inactive); in experiment [7], > 100 µM (inactive); in [8] it was > 100 µM (inactive); in [10] it was > 100 µM (inactive); in experiment [11] it was > 100 µM (inactive); in experiment [13], 52.5 µM (inactive). Moreover, the GI50 in experiment [14] is > 100 µM (inactive); in experiment [15], 72.3 µM (inactive); in experiment [16], > 100 µM (inactive); in experiment [17], 32.9 µM (inactive); in [18] it was > 100 µM (inactive).

Consider `COc1ccc2c(c1)SC1=Nc3sc4cc(OC)ccc4[n+]3CN12`, for which the GI50 was 29.9 µM (inactive) in experiment [1]; 32.9 µM (inactive) in experiment [2]; 20.3 µM (inactive) in [19]; 86.1 µM in [3]; 24.9 µM (inactive) in experiment [4]; 11.2 µM (inactive) in [5]. In addition, the GI50 in experiment [6] was 29 µM (inactive); in experiment [7] it was 26.9 µM (inactive); in experiment [8], 2.72 µM (inactive); in experiment [10], 29.4 µM (inactive); in experiment [11] it was 36.5 µM (inactive); in experiment [12] it was 20.7 µM (inactive). Besides, the GI50 in experiment [14] was 2.89 µM (inactive); in [15], 4.1 µM (inactive); in experiment [16] it was 54.3 µM (inactive); in experiment [17], 4.99 µM (inactive); in experiment [18] it was 30.4 µM (inactive).

For the compound `Cc1nc(O)c(Cc2ccccc2O)c(-c2ccccc2)n1`, the GI50 in experiment [1] was > 100 µM (inactive); in experiment [2] it was > 100 µM (inactive); in experiment [19], 99.3 µM (inactive); in experiment [3] it was greater than 100 µM; in [4] it was > 100 µM (inactive); in experiment [5], > 100 µM (inactive). In addition, the GI50 is 98.9 µM (inactive) in experiment [6]; > 100 µM (inactive) in experiment [7]; > 100 µM (inactive) in [8]; > 100 µM (inactive) in experiment [9]; > 100 µM (inactive) in experiment [10]; > 100 µM (inactive) in [11]. Besides, the GI50 in experiment [12] was > 100 µM (inactive); in [13], > 100 µM (inactive); in experiment [14] it was > 100 µM (inactive); in [15] it was > 100 µM (inactive); in experiment [16] it was > 100 µM (inactive); in experiment [17] it was 78.5 µM (inactive). In addition, the GI50 in experiment [18] is > 100 µM (inactive).

As for `Cc1ncc([N+](=O)[O-])n1CCNC(=O)Cn1ccnc1[N+](=O)[O-]`, the GI50 was > 100 µM (inactive) in experiment [1]; > 100 µM (inactive) in [2]; > 100 µM (inactive) in experiment [19]; > 100 µM (inactive) in experiment [20]; greater than 100 µM in [3]; > 100 µM (inactive) in experiment [4]. Moreover, the GI50 in experiment [5], in experiment [6], in experiment [7], in experiment [8], in experiment [10] and in experiment [11] was > 100 µM (inactive) each time. Further, the GI50 in [14], in experiment [15], in experiment [16], in [17] and in [18] was > 100 µM (inactive) in each case.

Take `C=CCNS(=O)(=O)c1ncnc2[nH]cnc12`: the GI50 in experiment [1] is > 100 µM (inactive); in [2], 26.2 µM (inactive); in [19] it was > 100 µM (inactive); in experiment [3] it was greater than 100 µM; in experiment [4], > 100 µM (inactive); in [5], > 100 µM (inactive). Further, the GI50 in experiment [6], in [7], in experiment [8], in experiment [9], in experiment [10] and in experiment [11] was > 100 µM (inactive) each time. Moreover, the GI50 in [12] was 11.8 µM (inactive); in experiment [13], 59.7 µM (inactive); in [15] it was > 100 µM (inactive); in experiment [16], > 100 µM (inactive); in experiment [17], > 100 µM (inactive); in experiment [18], > 100 µM (inactive).

Turning to `COc1ccc(-c2cc(=O)c3c(OC)c(OC)c(OC)c(OC)c3o2)cc1` [TANGERETIN], the GI50 in experiment [1] is 53.6 µM (inactive); in experiment [2] it was 53.6 µM (inactive); in experiment [19] it was 82.6 µM (inactive); in experiment [20] it was 91 µM (inactive); in [3], 35 µM; in experiment [4] it was 69 µM (inactive). Also, the GI50 in experiment [6] is 28.8 µM (inactive); in [7], 50.5 µM (inactive); in experiment [8] it was 42.4 µM (inactive); in [9], 46.1 µM (inactive); in experiment [10] it was 41.2 µM (inactive); in [12], 67 µM (inactive). Besides, the GI50 is 45.4 µM (inactive) in experiment [13]; > 100 µM (inactive) in experiment [14]; 27.7 µM (inactive) in experiment [15]; > 100 µM (inactive) in [16]; 17 µM (inactive) in experiment [17]; 68.4 µM (inactive) in [18].

Take `CC1(C)C2CCC1(C)C(N/C(Sc1ccccc1)=C(/C(Cl)=C(Cl)Cl)[N+](=O)[O-])C2` (centres undefined): the GI50 in experiment [1] is 14 µM (inactive); in experiment [2], 15.2 µM (inactive); in experiment [20] it was 15.2 µM (inactive); in experiment [3], 10.4 µM; in experiment [5], 4.8 µM (inactive); in [6], 10.4 µM (inactive). Further, the GI50 in experiment [7] was 10.4 µM (inactive); in experiment [8] it was 4.92 µM (inactive); in experiment [9] it was 13.4 µM (inactive); in experiment [10], 13.8 µM (inactive); in experiment [11], 9.06 µM (inactive); in experiment [14], 12 µM (inactive). Besides, the GI50 was 18.1 µM (inactive) in experiment [16], 13.5 µM (inactive) in experiment [17] and 14.3 µM (inactive) in [18].

In the case of `Cc1ccc(S(=O)(=O)N2CCCSCCSCCCSCC2)cc1`, the GI50 in experiment [1] is > 100 µM (inactive); in [19], > 100 µM (inactive); in [20] it was > 100 µM (inactive); in experiment [3], greater than 100 µM; in [4] it was > 100 µM (inactive); in [5], > 100 µM (inactive). The GI50 in experiment [6], in experiment [7], in experiment [8], in [9], in [10] and in experiment [11] was > 100 µM (inactive) each time. For the same compound, the GI50 in [14], in experiment [15], in [16], in [17] and in experiment [18] was > 100 µM (inactive) throughout.

`CCCCCCCC/C=C\CCCCCCC/C=C1\C[C@](/C=C/C(=O)OC)(CO)OC1=O`: the GI50 was 1.33 µM (inactive) in experiment [1]; 1.29 µM (inactive) in experiment [2]; 1.32 µM (inactive) in experiment [19]; 5.36 µM (inactive) in [20]; 2.75 µM in [3]; 2.75 µM (inactive) in experiment [4]. Further, the GI50 in experiment [5] was 3.37 µM (inactive); in experiment [6], 1.94 µM (inactive); in [7], 1.25 µM (inactive); in experiment [8], 5.32 µM (inactive); in experiment [9] it was 3.2 µM (inactive); in experiment [10], 2.59 µM (inactive). The GI50 in experiment [11] is 1.79 µM (inactive); in experiment [13], 5.28 µM (inactive); in experiment [14] it was 1.96 µM (inactive); in experiment [15], 3.31 µM (inactive); in experiment [16], 4.54 µM (inactive); in [17] it was 3.27 µM (inactive). Also, in [18], the GI50 was 12.6 µM (inactive).

`Cc1ccc(S[C@@H](C)[C@@](O)(CF)CN(Cc2ccccc2)C(=O)C(F)(F)F)cc1`: the GI50 in experiment [1] was 16.7 µM (inactive); in [2], 25.5 µM (inactive); in experiment [19], 11 µM (inactive); in [20], 18.3 µM (inactive); in experiment [3], 17.1 µM; in experiment [4], > 100 µM (inactive). For the same compound, the GI50 in [6] is 22.4 µM (inactive); in experiment [7] it was 19.6 µM (inactive); in experiment [8] it was 13.7 µM (inactive); in experiment [9] it was 14.9 µM (inactive); in experiment [10], 5.09 µM (inactive); in [11], 29.1 µM (inactive). For the same compound, the GI50 in [14] was 33.2 µM (inactive); in [16] it was 23.4 µM (inactive); in [17], 28.8 µM (inactive); in experiment [18], 20.9 µM (inactive).
